Experimental data reported in PubChem BioAssay (NCI).
“And” between values parts separate entries of the source, which are not always exact repeats. Equal values may be shown once.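 In this assay, cells in 96-well plates receive the compound at five concentrations for 48 hours. Endpoints are linearly interpolated between the surrounding concentrations. Here, GI50 denotes the concentration required for 50% inhibition of growth. TGI marks complete inhibition of growth.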

Experiments:
Assay in all cases: NCI-60 cell line screen, 48 h
[1] = system: DU-145 prostate
[2] = system: NCI/ADR-RES ovarian
[3] = system: MDA-MB-231 breast
[4] = system: T-47D breast
[5] = system: PC-3 prostate
[6] = system: M19-MEL melanoma
[7] = system: LXFL 529 NSCLC
[8] = system: SNB-78 CNS
[9] = system: KM20L2 colon

Row | SMILES | GI50 [1] | TGI [1] [µM] | GI50 [2] | TGI [2] [µM] | GI50 [3] | TGI [3] [µM] | GI50 [4] | TGI [4] | GI50 [5] | TGI [5] | TGI [6] [µM] | GI50 [7] [µM] | TGI [7] [µM] | GI50 [8] [µM] | TGI [8] [µM] | GI50 [9] [µM] | TGI [9] [µM] | GI50 [6] [µM]
1 | Nc1cc(-c2ccc(Cl)cc2)nn1-c1nnc(/C=C/c2ccco2)c(=O)[nH]1 | 4.5 µM | 28.2 | 1.48 µM | 10.5 | 11.2 µM | > 100 | 5.35 µM | > 66.5 µM | 8.95 µM | > 75 µM | – | – | – | – | – | – | – | –
2 | COc1ccc(Nc2nccc(N3CCN(c4c5ccc(Cl)cc5nc5ccc(OC)cc45)CC3)n2)cc1 | 28.7 µM | > 100 | 7.41 µM | > 100 | 4.63 µM | > 100 | 2.99 µM | 44.7 µM | – | – | – | – | – | – | – | – | – | –
3 | CSc1ccc(N(C)c2nc(C)nc3c2CCC3)cc1 | – | – | < 0.01 µM | 12.6 | < 0.01 µM | 72.4 | – | – | < 0.01 µM | 51.6 µM | – | – | – | – | – | – | – | –
4 | O=C(O)c1ccccc1C(=O)c1ccc2c(c1)Cc1ccccc1-2 | – | > 100 | – | > 100 | – | > 100 | – | > 100 µM | – | > 100 µM | – | – | – | – | – | – | – | –
5 | Cc1cc(C)n(C2=NS(=O)(=O)c3ccccc3N2C)n1 | – | > 100 | – | > 100 | – | > 100 | – | > 100 µM | – | > 100 µM | – | – | – | – | – | – | – | –
6 | CN1c2ccccc2SC2C(c3ccccc3)=NOC21 (configuration not stated) | – | > 100 | – | 87.3 | – | > 100 | – | 94.3 µM | – | 71 µM | – | – | – | – | – | – | – | –
7 | Cc1ccc2oc(=O)c(-c3ccccc3)nc2c1 | – | – | – | – | – | – | – | – | – | – | 64.8 | – | – | – | – | – | – | –
8 | O=C(Cl)C1=C(c2ccccc2)C1c1ccccc1 (configuration not stated) | – | > 100 | – | – | – | > 100 | – | > 100 µM | – | > 100 µM | – | – | – | – | – | – | – | –
9 | COc1ccc(F)c(F)c1C(=O)c1cnc(NC2CCN(S(C)(=O)=O)CC2)nc1N | 1.7 µM and 0.623 µM | > 71.2 | 2.63 µM and 1.65 µM | > 100 | 0.805 µM and 0.262 µM | – | 1.04 µM and 0.678 µM | 11.8 µM and > 8.01 µM | 0.385 µM and 0.411 µM | 5.44 µM and 5.92 µM | – | – | – | – | – | – | – | –
10 | O=C1c2ccccc2-c2c1c1ccccc1c(=O)n2CCNCCn1c2c(c3ccccc3c1=O)C(=O)c1ccccc1-2 | > 25 µM | > 25 | > 25 µM | > 25 | 18.2 µM | > 25 | – | – | – | – | – | – | – | – | – | – | – | –
11 | CC1c2ccccc2N=C2SC(=S)N3CCN=C3N21 (configuration not stated) | > 100 µM | > 100 | > 100 µM | > 100 | > 100 µM | > 100 | > 100 µM | > 100 µM | > 100 µM | > 100 µM | – | – | – | – | – | – | – | –
12 | O=C1/C(=C/c2ccc([N+](=O)[O-])cc2)COc2ccc(O)cc21 | 13.5 µM | > 100 | 16.9 µM | > 100 | 4.77 µM | 36.9 | 9.73 µM | > 100 µM | 2.58 µM | 7.27 µM | – | – | – | – | – | – | – | –
13 | COc1ccc(-c2cnoc2-c2cc(OC)c3c(c2)OCCO3)cc1 | 0.0456 µM | > 46.9 | < 0.0132 µM | 49.5 | 0.0509 µM | – | – | – | 0.0377 µM | > 100 µM | – | – | – | – | – | – | – | –
14 | O=C(c1cccs1)C1NO[N+]([O-])=C1c1cccs1 (configuration not stated) | 3.76 µM | 10.7 | 3.42 µM | 18.9 | 11.8 µM | 25 | 2.2 µM | 5.09 µM | 8.43 µM | 22.3 µM | – | – | – | – | – | – | – | –
15 | c1ccc(-c2nc(N3CCCNCC3)c3nc(-c4ccccc4)oc3n2)cc1 | 1.8 µM | 3.26 | 1.91 µM | 3.86 | 1.72 µM | 3.21 | 1.78 µM | 3.64 µM | – | – | – | – | – | – | – | – | – | –
16 | [2H]c1nc(=Nc2cc(NC(=O)C=C)c(N(C)CCN(C)C)cc2OC)[nH]c(-c2cn(C([2H])([2H])[2H])c3ccccc23)c1[2H] | 1.51 µM | 11.8 | 1.39 µM | 5.02 | 1.27 µM | 2.81 | 1.07 µM | 2.83 µM | 1.61 µM | 3.5 µM | – | – | – | – | – | – | – | –
17 | Cc1cccc(N=Nc2ccc(N=Nc3c(O)ccc4ccccc34)cc2C)c1 | – | – | – | 50.7 | – | > 100 | – | – | – | > 100 µM | – | – | – | – | – | – | – | –
18 | N.N.N.N.N.O=S(=O)([O-])S(=O)(=O)[O-].[Co+3] | – | – | – | – | – | – | – | – | – | – | – | > 100 | > 100 | > 100 | > 100 | > 100 | > 100 | –
19 | c1cnn2ncc(-c3ccnc(Nc4ccc5c(c4)OCCO5)n3)c2c1 | 0.0844 µM | 1.45 | 0.0781 µM | 1.65 | 0.0914 µM | > 25 | 0.084 µM | 0.495 µM | 0.0955 µM | > 25 µM | – | – | – | – | – | – | – | –
20 | O=C1/C(=C/c2cccc([N+](=O)[O-])c2)Sc2scc(-c3ccc([N+](=O)[O-])cc3)[n+]21 | – | > 100 | – | 89.2 | – | 72.5 | – | > 100 µM | – | > 100 µM | – | – | – | – | – | – | – | –
21 | CC(=O)[CH-]C(=O)c1ccccc1.CC(=O)[CH-]C(=O)c1ccccc1.CC1(C)OCC(C2OC3OC(C)(C)OC3C2[O-])O1.CC[O-].[Ti+4] (configuration not stated) | – | – | – | – | – | – | – | – | – | – | 24.5 | – | – | – | – | 21 | 53.5 | 10.5
22 | O=[N+]([O-])c1ccc(-c2cc3c(Nc4ccc(Cl)c(C(F)(F)F)c4)ncnc3s2)cc1 | 1.63 µM | > 100 | 1.36 µM | > 100 | 0.382 µM | 1.63 | 0.407 µM | 6.1 µM | 0.802 µM | > 100 µM | – | – | – | – | – | – | – | –
23 | CC(=Nc1ccc(S(N)(=O)=O)cc1)c1c(O)[nH]c2ccccc12 | > 25 µM | > 25 | > 25 µM | > 25 | > 25 µM | > 25 | > 8.37 µM | > 25 µM | > 25 µM | > 25 µM | – | – | – | – | – | – | – | –
24 | Cc1cc2c(cc1Cl)S/C(=C/C(=O)O)C(Nc1cccc3nsnc13)=NS2(=O)=O | > 16 µM | > 57.3 | > 40.2 µM | > 58.9 | 47.4 µM | > 69.4 | > 77.8 µM | > 100 µM | 41 µM | > 75.8 µM | – | – | – | – | – | – | – | –
25 | COc1ccc(C2=C(N3CCc4ccccc43)C(=O)NC2=O)cc1 | > 25 µM | > 25 | > 25 µM | > 25 | > 22.4 µM | > 25 | > 17.8 µM | > 25 µM | > 20.2 µM | > 25 µM | – | – | – | – | – | – | – | –
26 | COc1cccc(COc2cc(-n3cnc4ccccc43)sc2C(N)=O)c1 | > 10.3 µM | > 25 | 1.75 µM | > 25 | 14.8 µM | > 25 | > 25 µM | > 25 µM | > 25 µM | > 25 µM | – | – | – | – | – | – | – | –
